Among the test systems are CCRF-CEM; EKVX; HCT-116; HOP-92; K562; Malme-3M; OVCAR-3; OVCAR-4; RPMI-8226; SF-539; SK-MEL-2; SK-OV-3; SNB-19; UACC-257; UACC-62; XF498; M14; MDA-MB-435; ACHN; SR.
Experiment in all cases: inhibition of tumour cell growth, NCI panel, 48 h

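A five-concentration, 48-hour dose response in 96-well plates underlies each endpoint, interpolated linearly between surrounding concentrations. The concentration for 50% growth inhibition is given as GI50.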 Calls of active or inactive are those of the source. No stated cut-off is given here; in the data, active = GI50 up to about 1.1 µM and inactive = higher.

As to `O=C(NC(Cc1ccc(I)cc1)C(=O)O)c1ccc(Br)cc1` (stereo not drawn), the GI50 in the test with CCRF-CEM is > 66.2 µM (inactive); in the test with EKVX it was 17.2 µM (inactive); in the test on HCT-116 it was > 100 µM (inactive); in the test with HOP-92, 76.7 µM (inactive); in the test on K562, > 73.1 µM (inactive); in the test with Malme-3M it was 80.9 µM (inactive). In addition, the GI50 in the test with OVCAR-3 is 89.7 µM (inactive); with OVCAR-4, > 85.5 µM (inactive); with RPMI-8226, 46.9 µM (inactive); in the test on SF-539, > 100 µM (inactive); with SK-MEL-2, > 100 µM (inactive); in the test with SK-OV-3, > 100 µM (inactive). Moreover, the GI50 with SNB-19 was > 86.7 µM (inactive); in the test with UACC-257 it was > 100 µM (inactive); in the test on UACC-62, > 67.3 µM (inactive); in the test with XF498, > 77.6 µM (inactive).
On to `O=C(c1ccccc1)C1C(c2ccccc2)N1S(=O)(=O)c1ccccc1` (stereo not drawn), for which the GI50 in the test on CCRF-CEM, in the test with EKVX, in the test on HCT-116, in the test with K562, in the test on M14 and with MDA-MB-435 was > 100 µM (inactive) in each case. For the same molecule, the GI50 with Malme-3M, in the test with OVCAR-3, in the test with OVCAR-4, with RPMI-8226, in the test on SF-539 and in the test on SK-MEL-2 was > 100 µM (inactive) each time. Besides, the GI50 in the test with SK-OV-3 and in the test on UACC-62 was > 100 µM (inactive) throughout.
With `O=c1c(-c2ccccc2)c(SCCN2CCCCCC2)n(-c2ccccc2)c(=S)n1-c1ccccc1`, the GI50 with ACHN is 54.6 µM (inactive); in the test with CCRF-CEM, 8.45 µM (inactive); with EKVX it was 17.7 µM (inactive); in the test on HOP-92 it was 15.2 µM (inactive); in the test on K562, 19.6 µM (inactive); in the test with MDA-MB-435, 33 µM (inactive). Further, the GI50 in the test with Malme-3M is 12.5 µM (inactive); with OVCAR-3, 32.7 µM (inactive); with OVCAR-4, 15.5 µM (inactive); with RPMI-8226, 20.7 µM (inactive); in the test with SF-539 it was > 100 µM (inactive); in the test with SK-OV-3, > 100 µM (inactive). The GI50 in the test with SR is 21.8 µM (inactive); in the test on UACC-257, 86.3 µM (inactive); with UACC-62, 48.9 µM (inactive).
With `CCOC(=O)C(C(=O)OCC)c1cc(-c2cc3ccccc3o2)oc(=O)c1C#N`, the GI50 in the test on ACHN is 34.6 µM (inactive); with CCRF-CEM it was 29.6 µM (inactive); in the test on EKVX, 39.7 µM (inactive); in the test on HCT-116, 21.3 µM (inactive); in the test with HOP-92, 3.41 µM (inactive); in the test on K562, 29 µM (inactive). Besides, the GI50 was 20.8 µM (inactive) with M14; 22.4 µM (inactive) with Malme-3M; 26.5 µM (inactive) in the test on OVCAR-4; 35.6 µM (inactive) in the test on RPMI-8226; 19.3 µM (inactive) in the test with SF-539; 19.8 µM (inactive) with SK-MEL-2. Further, the GI50 with SNB-19 is 37.3 µM (inactive); in the test on SR, 24.5 µM (inactive); in the test with UACC-257, 25.6 µM (inactive); in the test on XF498 it was 19 µM (inactive).
`Nc1nnc2ccc(Cl)cc2[n+]1[O-]`: the GI50 with ACHN is 62.7 µM (inactive); in the test with CCRF-CEM, 29.6 µM (inactive); with EKVX, 47.6 µM (inactive); in the test with HCT-116 it was 39.7 µM (inactive); in the test on K562, 21.8 µM (inactive); in the test on M14 it was 39.1 µM (inactive). Also, the GI50 is 57 µM (inactive) with MDA-MB-435; 54 µM (inactive) in the test with Malme-3M; > 100 µM (inactive) with RPMI-8226; 49.3 µM (inactive) with SK-MEL-2; 28.6 µM (inactive) in the test with SK-OV-3; > 100 µM (inactive) with SNB-19. Also, the GI50 in the test with SR is 46.3 µM (inactive); in the test with UACC-257 it was 94 µM (inactive); with UACC-62, 49 µM (inactive).
Take `Cc1ccc(NC(=O)S(N)(c2ccc(C)cc2)[N+](=O)[O-])cc1` (stereo not drawn): the GI50 in the test with CCRF-CEM was > 100 µM (inactive); with HCT-116 it was > 100 µM (inactive); with HOP-92, > 100 µM (inactive); in the test on K562 it was 8.87 µM (inactive); in the test with M14 it was > 100 µM (inactive); in the test with MDA-MB-435 it was > 100 µM (inactive). The GI50 with Malme-3M, with OVCAR-3, in the test on OVCAR-4, with RPMI-8226, with SK-MEL-2 and with SK-OV-3 was > 100 µM (inactive) in each case. The GI50 in the test with SNB-19, in the test with SR, in the test with UACC-257 and in the test on UACC-62 was > 100 µM (inactive) throughout.
For `N#Cc1ccccc1NC(=O)C(=O)C(C(=O)c1ccccc1F)C1OC(=O)c2ccccc21` (stereo not drawn), the GI50 in the test with ACHN is 80.7 µM (inactive); in the test with CCRF-CEM it was 15.1 µM (inactive); with EKVX, 45.5 µM (inactive); in the test with HCT-116, 34.2 µM (inactive); with HOP-92, > 100 µM (inactive); in the test on K562, 36.7 µM (inactive). For the same molecule, the GI50 with M14 was 82 µM (inactive); in the test on OVCAR-4 it was 65 µM (inactive); in the test with RPMI-8226, 25 µM (inactive); in the test with SF-539 it was 24.8 µM (inactive); in the test on SK-MEL-2, 24.1 µM (inactive); in the test on SK-OV-3, 41.3 µM (inactive). In addition, the GI50 in the test with SNB-19 was 32.4 µM (inactive); in the test on SR, 17.1 µM (inactive); with UACC-257, 58.2 µM (inactive); with UACC-62 it was 41 µM (inactive); with XF498, 84.7 µM (inactive).
Take `Cc1cccc(C(O)c2cccnc2)c1O` (stereo not drawn): the GI50 in the test on ACHN, in the test with CCRF-CEM, with EKVX, in the test on HCT-116, in the test with K562 and in the test with MDA-MB-435 was > 100 µM (inactive) each time. The GI50 with Malme-3M, in the test on OVCAR-3, with RPMI-8226, with SF-539, in the test on SNB-19 and with SR was > 100 µM (inactive) in each case. In addition, the results for the GI50 with UACC-257 and with UACC-62 were 66.7 µM (inactive) and 35.7 µM (inactive), respectively.
Take `CC(C)=CCC(OC(=O)C=C(C)C)c1cc(O)c2c(c1O)C(=O)C=CC2=O` (stereo not drawn): the GI50 was 0.0208 µM (active) in the test on CCRF-CEM; 0.933 µM (active) with EKVX; 0.279 µM (active) in the test with HCT-116; 0.469 µM (active) in the test on HOP-92; 0.27 µM (active) in the test on K562; 0.428 µM (active) in the test on Malme-3M. Besides, the GI50 was 0.839 µM (active) in the test with OVCAR-3; 0.78 µM (active) in the test with OVCAR-4; 0.171 µM (active) in the test with RPMI-8226; 2.3 µM (inactive) with SF-539; 2.01 µM (inactive) in the test with SK-MEL-2; 5.45 µM (inactive) with SK-OV-3. The GI50 with SNB-19 was 7.46 µM (inactive); in the test with UACC-257, 0.753 µM (active); with UACC-62 it was 0.783 µM (active); with XF498, 0.809 µM (active).
For the molecule `Brc1ccccc1-c1ncc(-c2ccccc2)o1`, the GI50 in the test on ACHN was 33.6 µM (inactive); in the test with CCRF-CEM, 24.9 µM (inactive); with EKVX, 6.7 µM (inactive); in the test on HCT-116, 34.8 µM (inactive); with HOP-92, 17.8 µM (inactive); with K562, 21.1 µM (inactive). Besides, the GI50 is 29.6 µM (inactive) in the test with M14; 23.6 µM (inactive) in the test on MDA-MB-435; 26.7 µM (inactive) in the test with Malme-3M; 22 µM (inactive) with OVCAR-3; 29.4 µM (inactive) in the test on OVCAR-4; 15 µM (inactive) in the test on RPMI-8226. Moreover, the GI50 with SF-539 was 9.91 µM (inactive); with SK-MEL-2, 27.3 µM (inactive); in the test with SK-OV-3 it was 31.1 µM (inactive); in the test on SNB-19, > 100 µM (inactive); in the test on UACC-257, 30.3 µM (inactive); with UACC-62, 32.2 µM (inactive).
As for `CC1=CC[C@H](C)C(C)(C)C1/C=C/C(C)=C/CC[C@@]1(CO)[C@H](CCCO)/C(=C(/C)C=O)CC[C@]1(C)O` (stereo partly drawn), the GI50 in the test with ACHN is 3.68 µM (inactive); with CCRF-CEM, 4.21 µM (inactive); in the test with EKVX, 2.2 µM (inactive); with HOP-92 it was < 0.01 µM (active); in the test on K562, 1.31 µM (inactive); with M14, 2.07 µM (inactive). Also, the GI50 was 3.27 µM (inactive) in the test with Malme-3M; 6.78 µM (inactive) in the test on SF-539; 15.8 µM (inactive) with SK-MEL-2; 25.2 µM (inactive) in the test on SK-OV-3; 8.51 µM (inactive) with SNB-19; 0.493 µM (active) in the test with SR. Besides, the GI50 is 15.2 µM (inactive) in the test with UACC-257 and 7.41 µM (inactive) in the test with XF498.
Regarding `O=C(O)C1CCC(=O)N1C(=O)COc1cc(Cl)c(Cl)cc1Cl` (stereo not drawn), the GI50 with ACHN was > 100 µM (inactive); in the test with EKVX, > 100 µM (inactive); in the test with HCT-116 it was > 100 µM (inactive); in the test on HOP-92, 82 µM (inactive); with M14, > 100 µM (inactive); with OVCAR-3, > 100 µM (inactive). Moreover, the GI50 in the test on OVCAR-4, with SK-OV-3, with SNB-19, with UACC-257, in the test on UACC-62 and in the test on XF498 was > 100 µM (inactive) in each case.
